Article PMC11547703, “Design, Synthesis, and Evaluation of Doxifluridine Derivatives as Nitroreductase-Responsive Anticancer Prodrugs” (Molecules, 2024)
Read-outs that look alike come from different tables or passages of the source.

Columns and labels:
[1] = Stability of target compounds in phosphate-buffered saline (pH 6.5 and pH 7.4), HPLC; type: physicochemical; settings: PBS pH 6.5 and 7.4, mouse and rat plasma (Figure S1)
Description: (§1) The stability of the target compounds was tested first, and excellent stability was essential for physiological function evaluation. Phosphate-buffered saline (PBS) of different pH values was used to evaluate the stability of the target compounds in a weakly acidic tumor microenvironment (pH 6.5) versus a weakly alkaline normal physiological environment (pH 7.4). […] The stability of the target compounds in mouse and rat plasma was excellent. The concentrations of all target compounds remained at >80% of the initial concentrations after 24 h, with the concentrations of compounds 1c, 2c, and 3c being 89%, 88%, and 83% in mouse plasma and 86%, 84%, and 81% in rat plasma, respectively (Figure 3c,d).
(§2) PBS (pH 7.4) was made with 137 mM NaCl, 2.7 mM KCl, 10 mM Na2HPO4, and 1.8 mM KH2PO4, while PBS (pH 6.5) was made with 24.6 mM Na2HPO4 and 175.4 mM NaH2PO4. The target compounds were dissolved into the different buffers (50 μM; 1% DMSO), and the mixtures were incubated at 37 °C. A 100-μL sample was transferred to a vial for HPLC analysis at 1, 2, 4, 8, 12, and 24 h. C57BL/6 mice and SD rat orbital whole blood was collected into anticoagulation tubes and centrifuged at 4000× g for 5 min at 4 °C to obtain plasma. The target compounds were dissolved into the plasma (50 μM; 1% DMSO) and incubated at 37 °C. Each sample (100 μL) was collected and precipitated using 100 μL of acetonitrile. The mixture was vortexed for 5 min and centrifuged at 10,000× g for 10 min. The supernatant was transferred to a vial for HPLC analysis after 1, 2, 4, 8, 12, and 24 h.

[2] = system: MCF-7 human breast cancer cells; assay: In vitro cytotoxicity (MTT assay) in MCF-7 cells with or without NTR; type: cell-based; settings: for IC50: Homo sapiens, MCF7, MCF-7, 24 h, MTT; for IC50 (NTR-Free)/ IC50 (NTR): MCF-7, selectivity ratio
Description: (§3) The cytotoxicity of the target compounds 1c–6c were evaluated in MCF-7 human breast cancer cells and HT29 human colon cancer cells. These two cell lines were chosen because 5′-DFUR is currently used to treat breast and gastrointestinal tumors. The cells were incubated with the target compounds at various concentrations for 24 h in the presence or absence of NTR. The cell viability and proliferation behavior were assessed by 3-(4,5-dimethylthiazol-2-yl)-2,5-diphenyltetrazolium (MTT) assay. The half-maximal inhibitory concentration values of the tested compounds for inhibiting cell proliferation are shown in Table 1.
(§4) MCF-7 human breast cancer cells or HT29 human colon cancer cells purchased from the National Collection of Authenticated Cell Cultures were cultured in RPMI 1640 medium, and McCoy’s 5A medium supplemented with 10% fetal bovine serum and 1% penicillin-streptomycin in a humidified 5% CO2 incubator at 37 °C. Cells in the logarithmic growth phase were inoculated into 96-well plates at a density of 1.0 × 10^4 cells per well and cultured for 24 h. The target compounds were dissolved in DMSO and diluted in medium to different concentrations. The cells were then incubated with different concentrations of the target compound for 24 h. The cells in the NTR treatment group were incubated with various concentrations of compounds, NTR (final concentration, 50 µg/mL) and NADH (final concentration, 2 mM) for 24 h. Cell viability and proliferation were measured by MTT assay. Cell viability was calculated according to the following formula: cell viability (%) = (OD value of treatment group–OD value of blank group)/(OD value of control group–OD value of blank group) × 100. The half-maximal inhibitory concentration values were calculated from concentration-response curves using GraphPad PRISM (version 5.0, GraphPad, San Diego, CA, USA).

[3] = system: HT29 human colon cancer cells; assay: In vitro cytotoxicity (MTT assay) in HT29 cells with or without NTR; type: cell-based; settings: for IC50 (NTR-Free)/ IC50 (NTR): HT29, selectivity ratio; for IC50: Homo sapiens, HT-29, HT29, 24 h, MTT
Description: as §3, §4

[4] = molecular target: T1, NTR extracted from Escherichia coli (Escherichia coli, UniProt P38489); assay: In vitro release evaluation: incubation with NTR and NADH, HPLC of derivative and released 5′-DFUR; type: biochemical; settings: for concentration remaining under NTR conditions after 12 h / time after which compound was completely degraded by NTR / 5′-DFUR released: NTR 50 µg/mL, NADH 2 mM, PBS pH 7.4, 37 °C; for time after which compound was completely degraded by NTR / 5′-DFUR released: 50 µM compound; for 5′-DFUR released: at complete degradation
T1 construct: host or cells: Escherichia coli
T1 sequence (P38489 whole entry): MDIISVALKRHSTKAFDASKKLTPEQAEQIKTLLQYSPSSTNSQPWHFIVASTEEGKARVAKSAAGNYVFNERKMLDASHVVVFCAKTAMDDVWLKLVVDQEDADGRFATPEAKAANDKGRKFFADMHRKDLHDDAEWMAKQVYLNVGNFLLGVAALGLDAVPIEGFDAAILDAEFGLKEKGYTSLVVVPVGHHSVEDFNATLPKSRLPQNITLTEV
Description: (§5) NTR levels are reportedly much higher in hypoxic tumors than in normal tissues. To investigate the mechanism of activation of the derivatives and the amount of 5′-DFUR released, we treated the target compounds with NTR extracted from Escherichia coli to determine whether they provided the desired active agent as expected. The test compounds (50 µM, 1% dimethyl sulfoxide [DMSO]) were dissolved in PBS buffer at pH 7.4 and incubated with NTR (50 µg/mL) and NADH (2 mM) at 37 °C, and the concentrations of the derivatives and 5′-DFUR during the bioreduction were detected by high-performance liquid chromatography (HPLC). The designed target compounds 1c–3c could be metabolized to form 5′-DFUR in the presence of NTR, while the nitro-free compounds 4c–6c could not be metabolized to form 5′-DFUR. […] The metabolic rate of compound 2c was the highest, with a half-life of 0.6 h. It was completely degraded after 4 h, and 69.6% of 5′-DFUR was released. […] During the experiment, other metabolites, such as hydroxylamine derivatives and amino derivatives generated by reducing the nitro group were also detected. […] Compounds 4c, 5c and 6c, without nitro groups, remained well-stabilized under NTR conditions, with concentrations > 90% after 12 h.
(§6) The target compounds NTR and NADH were dissolved in 10 mM PBS (pH 7.4; 1% DMSO). The final concentrations of the target compounds NTR and NADH in the mixtures were 50 μM, 50 μg/mL, and 2 mM, respectively. The mixture were incubated at 37 °C. The sample (100 μL) was collected and quenched by 100 µL of cold methanol. The mixture was vortexed for 5 min and centrifuged at 10,000× g for 10 min. The supernatant was transferred to a vial for HPLC analysis at 0.25, 0.5, 1, 2, 4, 8, and 12 h.

[5] = Stability of target compounds in rat plasma, HPLC; type: in vitro ADME, SD rat; settings: 50 μM, 37 °C
Description: as §1, §2

NTR = molecular target: T2, NTR (Escherichia coli, UniProt P38489); assay: In vitro release evaluation: incubation with NTR and NADH, HPLC of derivative and released 5′-DFUR; type: biochemical; settings: Escherichia coli; 50 µM compound, NTR 50 µg/mL, NADH 2 mM, PBS pH 7.4, 37 °C; read-out: half-life in the presence of NTR (converted)
T2 construct: host or cells: Escherichia coli
T2 sequence (P38489 whole entry): as above
Description: as §5, §6

[6] = Stability of target compounds in mouse plasma, HPLC; type: in vitro ADME, C57BL/6 mice; settings: 50 μM, 37 °C
Description: as §1, §2

HT29 colon cancer cells = assay: In vivo antitumor activity in HT29 tumor-bearing mice; settings: for tumor growth inhibition (TGI) rate: 50 mg/kg intraperitoneally every 2 days for 4 weeks, HT29 tumor-bearing C57BL/6 mice
Description: Compound 2c, which has excellent stability, a high metabolic rate, and strong cytotoxicity under NTR conditions in vitro, was selected for the in vivo evaluation of antitumor activity in tumor-bearing mice. Tumor-bearing mice were generated by the axillary injection of HT29 colon cancer cells into C57BL/6 mice. When the tumors grew to approximately 100–150 mm^3, the mice were randomly divided into negative control (vehicle), compound 2c (50 mg/kg), and positive control 5′-DFUR (50 mg/kg) groups (n = 6 each). The mice were injected intraperitoneally every 2 days for 4 weeks, and the tumor volume and body weight of the mice were measured every 2 days. No death occurred in any group of mice during the experimental period.
Four-week-old C57BL/6 mice were purchased from Jinan Pengyue Experimental Animal Breeding Co. Ltd. (Jinan, China). The mice were housed in cages under a 12-h light/dark cycle from 7:00 to 19:00 at controlled temperatures (25–26 °C) and relative humidity (50 ± 10%) throughout the experimental period. All animals were allowed to eat and drink freely unless otherwise stated and allowed to acclimate for 1 week before the experiment. All animal experimental protocols were performed in accordance with applicable institutional and governmental regulations concerning the ethical use of animals (AP2024022954).
The tumor-bearing mice model was established by the subcutaneous injection of HT29 cells (1 × 10^7 cells/mL) purchased from the National Collection of Authenticated Cell Cultures to the right axilla of C57BL/6 mice (100 µL/mouse). When the tumor size reached 100–150 mm^3, the mice were evenly divided into negative control (vehicle), group 2c (50 mg/kg), and 5′-DFUR (50 mg/kg) groups (n = 6 each). Compound 2c and 5′-DFUR were dissolved in a solution containing 10% ethanol, 10% castor oil, and 80% saline that also served as the negative control. The mice were injected intraperitoneally every 2 days for 4 weeks, and the tumor volumes and body weights of the mice were measured every 2 days. Tumor volume was calculated using the following formula: tumor volume = length (mm) × width (mm) × width (mm) × 0.5. The TGI rate was determined as follows: TGI = 1 − (treatment final volume − treatment initial volume)/(control final volume − control initial volume) × 100%.

[7] = medium with NTR and NADH 2 mM, read-out: IC50 NTR
[8] = medium without NTR, read-out: IC50 NTR-Free

| Compound | stability in PBS at different pH values and plasma (in words) [1] | IC50 [2, 7] [µM] | IC50 [2, 8] [µM] | IC50 (NTR-Free)/ IC50 (NTR) [2] | IC50 (NTR-Free)/ IC50 (NTR) [3] | IC50 [3, 7] [µM] | IC50 [3, 8] [µM] | concentration remaining under NTR conditions after 12 h [4] [%] | concentration relative to initial concentration after 24 h in rat plasma [5] [%] | half-life at 50 µM (NTR) [h] | time after which compound was completely degraded by NTR [4] [h] | 5′-DFUR released [4] [%] | concentration relative to initial concentration after 24 h in mouse plasma [6] [%] | amount of 5′-DFUR released (AUC0–12h of relative amount), comparison in words ([4]; versus 1c and 3c, Figure 4d) | drug-related toxic reactions (in words) (HT29 colon cancer cells; 50 mg/kg i.p. every 2 days for 4 weeks) | body weight of mice (in words) (HT29 colon cancer cells; 50 mg/kg i.p. every 2 days for 4 weeks, versus positive control 5′-DFUR group) | tumor growth inhibition (TGI) rate (HT29 colon cancer cells) [%] |
| --- | --- | --- | --- | --- | --- | --- | --- | --- | --- | --- | --- | --- | --- | --- | --- | --- | --- |
| C[C@H]1O[C@@H](n2cc(F)c(=O)n(Cc3ccco3)c2=O)[C@H](O)[C@@H]1O [Compound 5c] | similarly stable | 423 | 412 | 0.97 | 1.09 | 422 | 459 | > 90 |  |  |  |  |  |  |  |  |  |
| C[C@H]1O[C@@H](n2cc(F)c(=O)n(Cc3ccccc3)c2=O)[C@H](O)[C@@H]1O [Compound 4c] | similarly stable | 537 | 495 | 0.92 | 1.01 | 614 | 621 | > 90 |  |  |  |  |  |  |  |  |  |
| C[C@H]1O[C@@H](n2cc(F)c(=O)n(Cc3ccc([N+](=O)[O-])cc3)c2=O)[C@H](O)[C@@H]1O [Compound 1c] |  | 106 | 470 | 4.42 | 7.39 | 79 | 584 |  | 86 | 1.3 | 12 | 45.1 | 89 |  |  |  |  |
| C[C@H]1O[C@@H](n2cc(F)c(=O)n(Cc3ccc([N+](=O)[O-])s3)c2=O)[C@H](O)[C@@H]1O [Compound 3c] |  | 96.4 | 435 | 4.52 | 7.22 | 63.3 | 457 |  | 81 | 1 | 8 | 55.6 | 83 |  |  |  |  |
| C[C@H]1O[C@@H](n2cc(F)c(=O)n(Cc3ccc([N+](=O)[O-])o3)c2=O)[C@H](O)[C@@H]1O [Compound 2c] |  | 80.3 | 400 | 4.99 | 7.62 | 57.4 | 437 |  | 84 | 0.6 | 4 | 69.6 | 88 | significantly higher | No significant drug-related toxic reactions were observed | smaller weight fluctuations and were slightly higher than those of the positive control group | 77.5 |
| C[C@H]1O[C@@H](n2cc(F)c(=O)n(Cc3cccs3)c2=O)[C@H](O)[C@@H]1O [Compound 6c] | similarly stable | 473 | 468 | 0.99 | 1.02 | 465 | 474 | > 90 |  |  |  |  |  |  |  |  |  |
| C[C@H]1O[C@@H](n2cc(F)c(=O)[nH]c2=O)[C@H](O)[C@@H]1O [5′-DFUR, 5′-deoxy-5-fluorouridine, reference compound] |  | 86.7 | 83.6 | 0.96 | 1.05 | 48.1 | 50.4 |  |  |  |  |  |  |  |  |  | 83.0 |
